Values after ≈ are worked out from the molar mass of the structure shown. Marks after values point to notes of the source that are not given here.
Key:
APEC O115 = format: cell-based, avian pathogenic Escherichia coli (APEC); details: APEC O115, M63 media; MIC/MBC
[1] = test system: intracellular APEC O2 in Caco-2 cells; assay: Intracellular survival assay (cidal SMs); details: O2, Caco-2, 6 h treatment; superscript = multiple of MIC
APEC O78 [2] = assay: Confocal microscopy bacterial cytological profiling; format: cell-based, avian pathogenic Escherichia coli (APEC); details: 2X MBC
Experimental: Confocal and scanning electron microscopy. Confocal microscopy was used for bacterial cytological profiling (BCP) to identify the cellular pathways targeted by SMs as described previously. […] After incubation, treated cultures were centrifuged, washed, and resuspended in 100 μL PBS. […] Cultures were then centrifuged, washed, and resuspended in PBS to 1⁄10th volume of the original cultures.

APEC O78 [3] = assay: Loss of 260/280 nm absorbing materials assay; format: cell-based, avian pathogenic Escherichia coli (APEC); details: 2X MBC, 1 h, *P<0.05 vs DMSO; for Absorbance 260: 260 nm absorbing material in supernatant; for Absorbance 280: 280 nm absorbing material in supernatant
APEC O18 = format: cell-based, avian pathogenic Escherichia coli (APEC); details: APEC O18, M63 media; MIC/MBC
[4] = test system: intracellular APEC O1 in HD11 cells; assay: Intracellular survival assay (cidal SMs); details: O1, HD11, 6 h treatment; superscript = multiple of MIC
[5] = test system: biofilm embedded APEC O78; assay: MBEC High-throughput assay; format: cell-based, avian pathogenic Escherichia coli (APEC); details: biofilm embedded APEC O78; superscript = multiple of MIC (footnote)
[6] = test system: intracellular APEC O78 in Caco-2 cells; assay: Intracellular survival assay (cidal SMs); details: O78, Caco-2, 6 h treatment; superscript = multiple of MIC
APEC O35 = format: cell-based, avian pathogenic Escherichia coli (APEC); details: APEC O35, M63 media; MIC/MBC
APEC O1-63 = format: cell-based, avian pathogenic Escherichia coli (APEC); details: APEC O1-63, M63 media; MIC/MBC
APEC O2-211 = format: cell-based, avian pathogenic Escherichia coli (APEC); details: APEC O2-211, M63 media; MIC/MBC
APEC O8 = format: cell-based, avian pathogenic Escherichia coli (APEC); details: APEC O8, M63 media; MIC/MBC
[7] = test system: intracellular APEC O1 in Caco-2 cells; assay: Intracellular survival assay (cidal SMs); details: O1, Caco-2, 6 h treatment; superscript = multiple of MIC
APEC O1 = format: cell-based, avian pathogenic Escherichia coli (APEC); details: APEC O1, M63 media; MIC/MBC
APEC O78-53 = format: cell-based, avian pathogenic Escherichia coli (APEC); details: APEC O78-53, M63 media; MIC/MBC
[8] = test system: Shiga toxin-producing (STEC) O157 and O26 strains; format: cell-based, E. coli; details: 100 µM, M63 media
APEC O2 = format: cell-based, avian pathogenic Escherichia coli (APEC); details: APEC O2, M63 media; MIC/MBC
[9] = test system: intracellular APEC O78 in THP-1 cells; assay: Intracellular survival assay (cidal SMs); details: O78, THP-1, 6 h treatment; superscript = multiple of MIC
[10] = test system: intracellular APEC O2 in THP-1 cells; assay: Intracellular survival assay (cidal SMs); details: O2, THP-1, 6 h treatment; superscript = multiple of MIC
APEC O78 [11] = format: cell-based, avian pathogenic Escherichia coli (APEC); details: for MBC relative to MIC: APEC O78; for MIC / MBC: APEC O78, M63 media; for MIC: MIC/MBC; for MBC: cell prints MIC/MBC
[12] = test system: intracellular APEC O2 in HD11 cells; assay: Intracellular survival assay (cidal SMs); details: O2, HD11, 6 h treatment; superscript = multiple of MIC
APEC O15 = format: cell-based, avian pathogenic Escherichia coli (APEC); details: APEC O15, M63 media; MIC/MBC
[13] = test system: intracellular APEC O1 in THP-1 cells; assay: Intracellular survival assay (cidal SMs); details: O1, THP-1, 6 h treatment; superscript = multiple of MIC
Rif^r APEC O78 = assay: In vivo efficacy of growth inhibitors in APEC infected broiler chickens
APEC O109 = format: cell-based, avian pathogenic Escherichia coli (APEC); details: APEC O109, M63 media; MIC/MBC
[14] = test system: intracellular APEC O78 in HD11 cells; assay: Intracellular survival assay (cidal SMs); details: O78, HD11, 6 h treatment; superscript = multiple of MIC

COc1cc(CNCCc2ccc3ccccc3c2)ccc1OCC(O)CN1CCCC1 (stereo not shown) [SM2]
MBC (APEC O115): 200 µM (≈ 86.9 µg/mL)
MIC (APEC O115): 200 µM (≈ 86.9 µg/mL)
SMs intracellular APEC clearance concentration [1]: >200 µM
cytological profile (confocal, FM4-64 / SYTO-9) (APEC O78 [2]): membrane pore formers
Absorbance 260 (APEC O78 [3]): 3.71
Absorbance 280 (APEC O78 [3]): 2.86*
MBC (APEC O18): 200 µM (≈ 86.9 µg/mL)
MIC (APEC O18): 100 µM (≈ 43.5 µg/mL)
SMs intracellular APEC clearance concentration [4]: 200b µM
MBEC [5]: 50^b µM
SMs intracellular APEC clearance concentration [6]: 100^a µM
MBC (APEC O35): 200 µM (≈ 86.9 µg/mL)
MIC (APEC O35): 100 µM (≈ 43.5 µg/mL)
MBC (APEC O1-63): 250 µM (≈ 109 µg/mL)
MIC (APEC O1-63): 200 µM (≈ 86.9 µg/mL)
MBC (APEC O2-211): 100 µM (≈ 43.5 µg/mL)
MIC (APEC O2-211): 100 µM (≈ 43.5 µg/mL)
MBC (APEC O8): 200 µM (≈ 86.9 µg/mL)
MIC (APEC O8): 100 µM (≈ 43.5 µg/mL)
SMs intracellular APEC clearance concentration [7]: >200 µM
MBC (APEC O1): 250 µM (≈ 109 µg/mL)
MIC (APEC O1): 200 µM (≈ 86.9 µg/mL)
MBC (APEC O78-53): 200 µM (≈ 86.9 µg/mL)
MIC (APEC O78-53): 100 µM (≈ 43.5 µg/mL)
activity against STEC O157 and O26 strains [8]: not cidal
MBC (APEC O2): 250 µM (≈ 109 µg/mL)
MIC (APEC O2): 200 µM (≈ 86.9 µg/mL)
SMs intracellular APEC clearance concentration [9]: 100^a µM
SMs intracellular APEC clearance concentration [10]: 100^a µM
MBC relative to MIC (APEC O78 [11]): identical to MIC
MIC (APEC O78 [11]): 100 µM (≈ 43.5 µg/mL)
MBC (APEC O78 [11]): 100 µM (≈ 43.5 µg/mL)
SMs intracellular APEC clearance concentration [12]: 200^b µM
MBC (APEC O15): 100 µM (≈ 43.5 µg/mL)
MIC (APEC O15): 100 µM (≈ 43.5 µg/mL)
SMs intracellular APEC clearance concentration [13]: 200^b µM
reduction of average APEC load in internal organs (Rif^r APEC O78; average of liver, heart, lung and kidney, vs untreated control): 1.3 logs
cumulative lesions score (Rif^r APEC O78; liver, heart, lung and air-sacs, untreated 6.2): 5.4
reduction of APEC induced mortality (Rif^r APEC O78; oral gavage twice a day, 5 days, untreated mortality (58.34%) normalized to 100%): 42.86%
reduction of APEC lesions severity (%), Air-sacs (airsacculitis) (Rif^r APEC O78; untreated control = 100%): 17.7%
reduction of APEC lesions severity (%), Liver (perihepatitis) (Rif^r APEC O78; untreated control = 100%): 0%
reduction of APEC load, Heart (Rif^r APEC O78; vs untreated control): 0.8 log CFU/g of tissues
reduction of APEC load, Kidney (Rif^r APEC O78; vs untreated control): 1.8 log CFU/g of tissues
reduction of APEC load, Liver (Rif^r APEC O78; vs untreated control): 1.2 log CFU/g of tissues
reduction of APEC load, Lung (Rif^r APEC O78; vs untreated control): 1.5 log CFU/g of tissues
Body weight gain (BWG) (Rif^r APEC O78; weight of live chickens before necropsy minus weight before treatment): 125.48±34.66^b
MBC (APEC O109): 200 µM (≈ 86.9 µg/mL)
MIC (APEC O109): 100 µM (≈ 43.5 µg/mL)
SMs intracellular APEC clearance concentration [14]: 100^a µM

COc1ccc(CCN(Cc2cc3c(cc2Cl)OCO3)CC2CCN(C)CC2)cc1 [SM11]
MBC (APEC O115): 200 µM (≈ 86.2 µg/mL)
MIC (APEC O115): 200 µM (≈ 86.2 µg/mL)
SMs intracellular APEC clearance concentration [1]: 200^b µM
cytological profile (confocal, FM4-64 / SYTO-9) (APEC O78 [2]): membrane pore formers
Absorbance 260 (APEC O78 [3]): 4.00*
Absorbance 280 (APEC O78 [3]): 2.89*
MBC (APEC O18): 200 µM (≈ 86.2 µg/mL)
MIC (APEC O18): 200 µM (≈ 86.2 µg/mL)
SMs intracellular APEC clearance concentration [4]: 200^b µM
MBEC [5]: 400^d µM
SMs intracellular APEC clearance concentration [6]: 100^a µM
MBC (APEC O35): 200 µM (≈ 86.2 µg/mL)
MIC (APEC O35): 100 µM (≈ 43.1 µg/mL)
MBC (APEC O1-63): 200 µM (≈ 86.2 µg/mL)
MIC (APEC O1-63): 100 µM (≈ 43.1 µg/mL)
MBC (APEC O2-211): 100 µM (≈ 43.1 µg/mL)
MIC (APEC O2-211): 100 µM (≈ 43.1 µg/mL)
MBC (APEC O8): 200 µM (≈ 86.2 µg/mL)
MIC (APEC O8): 200 µM (≈ 86.2 µg/mL)
SMs intracellular APEC clearance concentration [7]: >200 µM
MBC (APEC O1): 100 µM (≈ 43.1 µg/mL)
MIC (APEC O1): 100 µM (≈ 43.1 µg/mL)
MBC (APEC O78-53): 200 µM (≈ 86.2 µg/mL)
MIC (APEC O78-53): 100 µM (≈ 43.1 µg/mL)
activity against STEC O157 and O26 strains [8]: not cidal
MBC (APEC O2): 200 µM (≈ 86.2 µg/mL)
MIC (APEC O2): 100 µM (≈ 43.1 µg/mL)
SMs intracellular APEC clearance concentration [9]: 100^a µM
SMs intracellular APEC clearance concentration [10]: 100^a µM
MBC relative to MIC (APEC O78 [11]): identical to MIC
MIC (APEC O78 [11]): 100 µM (≈ 43.1 µg/mL)
MBC (APEC O78 [11]): 100 µM (≈ 43.1 µg/mL)
SMs intracellular APEC clearance concentration [12]: 200^b µM
MBC (APEC O15): 100 µM (≈ 43.1 µg/mL)
MIC (APEC O15): 100 µM (≈ 43.1 µg/mL)
SMs intracellular APEC clearance concentration [13]: >200 µM
MBC (APEC O109): 200 µM (≈ 86.2 µg/mL)
MIC (APEC O109): 200 µM (≈ 86.2 µg/mL)
SMs intracellular APEC clearance concentration [14]: 100^a µM
